In patent publication US9796755B2, “Methods of treating depression and other related diseases” (Northwestern University, priority 2009, dated 2017):

Tests used:
[1] = tested on: rats; test: Porsolt test (Forced Swim Test), systemic dosing; type: in vivo, rat
Procedure: For the evaluation of the antidepressant actions of GLYX-13, the effect of GLYX-13 in the Porsolt test of depression was examined in rats. Porsolt testing is the most commonly used test for assessment of depression in animal model, Porsolt testing, also known as Forced Swim Test, is based on a behavioral trait that is sensitive to changes in affective state. During this test, the animal is placed in a tank (18 cm diameter×45 cm height) filled to 30 cm with 22-23° C. water. After placing the animal in the tank, the amount of time for which the rat is immobile when it stops struggling is measured. Porsolt test is based on the fact that antidepressants increase the latency to immobility and decrease the time for which the rat is immobile. […] The interpretation of the Porsolt test is that the antidepressants reinstate active coping mechanisms and decrease the passive immobility evoked by stress.
In order to evaluate the effectiveness of GLYX-13 as antidepressant, three month old FBNF1 rats were separated into two groups of 9 animals. The first group of rats was intravenously injected with 10 mg/kg GLYX-13 and the second group of animals was intravenously injected with PBS vehicle (1 ml/kg) in a blind manner via chronic subdural femoral vein access ports. Both groups of animals were injected 10 to 15 minutes before the start of testing.
For Porsolt testing, animals were given a 15 minute pre-test habituation in the tank to induce learned helplessness on day one. Following this, on the subsequent day, the animals were injected with GLYX-13 or vehicle 10-15 minutes before being placed into the tank for a 5 minute test session. After placing the animals in the tank, the amount of time for which each animal is immobile when it stops struggling (Mean Immobility Time) was measured. Decrease in Mean Immobility Time is a measure of the effectiveness of the antidepressant.
A second experiment was performed in the same manner as Example 1, except that 2-3 month Sprague-Dawley rats were used, and treated with either intravenous (1, 3, 10, 32 mg/kg), subcutaneous (1, 3, 10, 32, 56, 100 mg/kg) injections of GLYX-13 or saline vehicle (1 mg/ml) 15 (i,v.) or 20 (s.c.) min before the start of the final 5 min test session. Ketamine (10 mg/kg i.p.) was given 60 min befbre the start of testing (Garcia et al., (2008) Prog Neuropsychopharmacol Biol Psychiatry, 32, 140-144).
To determine whether the antidepressant effect of GLYX-13 was specific to the sequence of the GLXY-13 peptide, mean time (sec) spent floating in the Porsolt test was determined in groups of 12 three-month old Sprague Dawley rats administered with GLYX-13 (TPPT-NH2 (SEQ ID NO: 13); 3 mg/kg , i.v. tail vein), a scrambled peptide (PTPT-NH3(SEQ ID NO: 19); 3 mg/kg i.v. tail vein), or 0.9% saline vehicle (1 ml/kg, i.v. tail vein). Administration occurred 60 min before the 5 min testing session. Animals received a 15 min training swim session one day before dosing.
To evaluate whether the anti-depressive and anxiolytic effects of GLYX-13 would persist beyond a few hours, rats were tested in the Porsolt test and the Open Field test, described above. Groups of 10-11 three-month old Sprague-Dawley rats were pretreated with GLYX-13 (3 mg/kg i.v.), ketamine (10 mg/kg i.v.) or saline vehicle injection (1 mg/ml i.v. tail vein) 96 hrs before the start of testing. Animals received a single 15 min. training swim session one day before dosing. Animals were tested 96 hrs post dosing in the Porsolt test without any testing during the intervening period. Open field testing was conducted without pre-habituation 1 day after Porsolt testing (i.e. 120 hrs post dosing). Mean(±SEM) time (sec.) spent floating in the Porsolt test, time spent in the center compartment (sec.), and line crosses in the open field test were determined.
The Porsolt test adapted for use in rats was performed as above. […]

[2] = tested on: rats; test: Conditioned place preference; type: in vivo, rat; conditions: GLYX-13 10 mg/kg IV; ketamine 10 mg/kg IV
Procedure: Animals were trained with GLYX-13 (10 mg/kg, IV), ketamine (10 mg/kg, IV), or saline vehicle (1 mL/kg, IV) utilizing an unbiased two-chamber conditioned place preference apparatus.

[3] = tested on: rats; test: Drug discrimination in rats trained to discriminate ketamine from saline
Procedure: Testing was conducted as described previously (Nicholson K L & Balster R L (2009) The discriminative stimulus effects of N-methyl-D-aspartate glycine-site ligands in NMDA antagonist-trained rats. Psychopharmacology (Berl) 203(2):441-451). Adult male Sprague Dawley rats were trained to discriminate ketamine (10 mg/kg IP) from saline. Animals were then tested following various doses of GLYX-13 administration (3-156 mg/kg SC) and the percent of ketamine lever responding and rates of responding were recorded.

[4] = tested on: rats; test: Prepulse inhibition; type: in vivo, rat; conditions: Sprague-Dawley rats; GLYX-13 10 mg/kg IV tested 15 min post injection; ketamine 10 mg/kg IP tested immediately
Procedure: Animals were given intravenous injections of GLYX-13 (10 mg/kg) or saline via chronic indwelling femoral vein cannulae and tested 15 min post injection, or intraperitoneal ketamine (10 mg/kg) or saline vehicle (1 mL/kg IV or IP respectively) and tested immediately post injection for prepulse inhibition.

[5] = tested on: glycogen synthase kinase 3β (GSK-3β); test: Total and phosphoserine-9 GSK-3β by ELISA in medial prefrontal cortex; type: in vivo, rat; conditions: 24 hrs after GLYX-13 3 mg/kg IV or ketamine 10 mg/kg IV
Source text: (§1) Total and Phosphoserine-9 glycogen synthase kinase 3β (GSK-3β) were quantified by ELISA according to the manufacturer's instructions (catalog numbers ADI-900-144 and ADI-900-123A, Assay Designs, USA). Total and phosphoserine-845 GluR1 were quantified by Western blot.

[6] = tested on: GluR1; test: Total and phosphoserine-845 GluR1 by Western blot in medial prefrontal cortex; type: in vivo, rat; conditions: 24 hrs after GLYX-13 3 mg/kg IV or ketamine 10 mg/kg IV
Source text: as §1

[7] = tested on: patients suffering with refractory depression; conditions: cited from earlier work
[8] = tested on: β-catenin; test: Total β-catenin protein level in medial prefrontal cortex; type: in vivo, rat; conditions: 24 hrs after GLYX-13 3 mg/kg IV or ketamine 10 mg/kg IV
[9] = literature (Bristow et al. 1996; Parsons et al. 1997); cited from earlier work

Structure (SMILES): NS(=O)(=O)c1cccc2c1c([N+](=O)[O-])cc1nc(O)c(O)nc12 [NBQX, reference compound]
- effect of NBQX pretreatment on the antidepressant-like effect of GLYX-13 (floating time) ([1]; NBQX 10 mg/kg IP before GLYX-13 3 mg/kg IV, tested 1 hr post dosing): blocked the antidepressant-like effect of GLYX-13

Structure (SMILES): CNC1(c2ccccc2Cl)CCCCC1=O (stereo not drawn) [ketamine, reference compound]
- conditioned place preference, an indicator of abuse potential [2]: induced conditioned place preference
- suppression of operant responding (rates of responding) ([3]; IP, 30 mg/kg (higher dose)): suppress operant responding
- ketamine-like discriminative stimulus effects (ketamine-lever selection) ([3]; IP, 5.6-30 mg/kg): dose-dependent increases in ketamine-lever selection
- suppression of operant responding (rates of responding) ([3]; SC, 10 mg/kg (higher dose)): suppress operant responding
- ketamine-like discriminative stimulus effects (ketamine-lever selection) ([3]; SC, 1-10 mg/kg): dose-dependent increases in ketamine-lever selection
- prepulse inhibition, an indicator of dissociative effects [4]: decreased prepulse inhibition
- phosphoserine-9 GSK-3β/total GSK-3β ratio [5]: reduced
- Phosphoserine-845 GluR1/total GluR1 ratio [6]: increased
- dissociative side effects ([1]; 10 mg/kg subcutaneous, testing 20 min post dosing): severe dissociative side effects
- effect on floating times in the Porsolt test ([1]; Sprague Dawley rats, 10 mg/kg IP, 20-60 min post dosing): reduced floating times
- Hamilton Depression Rating Score [7]: significant reductions
- total β-catenin [8]: reduced

Structure (SMILES): C[C@@H]([C@@H](O)c1ccc(O)cc1)N1CCC(O)(c2ccccc2)CC1 [CPC-101,606]
- Hamilton Depression Rating Score [7]: significant reductions

Structure (SMILES): O=c1[nH]c2cc(Cl)ccc2c(O)c1-c1cccc(Oc2ccccc2)c1 [L-701,324]
- anticonvulsant effects relative to ataxia (therapeutic index) [9]: anticonvulsant effects at doses that produced ataxia
